Several values for one entry are separate records, joined by “and”; a condition that tells them apart may be missing. Equal entries are not always repeated.
Each compound was assayed against T1, Parkin ligase (Homo sapiens, UniProt O60260) (assay: Activity-Based Probe Assay using Ubiquitin vinyl sulfone probe (TR-FRET)). Details: heat activated Parkin, HA-Ub-VS probe, activation EC50; read-out: Probe Assay EC50 (μM) [Example 2].
T1 sequence (O60260 1-465): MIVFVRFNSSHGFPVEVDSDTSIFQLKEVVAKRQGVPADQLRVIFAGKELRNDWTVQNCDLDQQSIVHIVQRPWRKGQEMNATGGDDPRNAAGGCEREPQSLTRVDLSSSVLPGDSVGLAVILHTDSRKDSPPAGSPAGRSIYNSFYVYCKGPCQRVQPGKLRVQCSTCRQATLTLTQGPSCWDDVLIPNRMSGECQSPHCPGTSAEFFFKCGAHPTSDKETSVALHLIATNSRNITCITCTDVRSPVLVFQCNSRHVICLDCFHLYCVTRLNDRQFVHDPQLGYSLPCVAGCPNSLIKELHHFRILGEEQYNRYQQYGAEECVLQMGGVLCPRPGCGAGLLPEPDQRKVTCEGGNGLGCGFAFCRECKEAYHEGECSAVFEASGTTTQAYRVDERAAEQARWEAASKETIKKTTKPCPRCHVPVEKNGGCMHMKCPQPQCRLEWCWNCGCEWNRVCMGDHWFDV
Assay type: biochemical
Method: An Ubiquitin vinyl sulfone probe can be used that irreversibly binds to the active site cysteine of Parkin ligase. Covalent attachment of the probe to the Parkin can be monitored by TR-FRET. Candidate activator compounds can be identified by increasing the activity of Parkin ligase due to an increase in TR-FRET signal. Screening for activating compounds can be distinguished from the controls as follows: 100% activation signal=Heat activated Parkin+100 nM control activator in DMSO. 0% activation signal=Heat activated Parkin+DMSO only. Parkin activators can be identified by an increase of the 0% activation signal TR-FRET signal. Assay Conditions: Materials: • Assay Plate: White 384 well plate (Corning 3572) • Enzyme: Parkin-His tagged 203 μM (10.5 mg/ml) • Probe: Ubiquitin vinyl-sulfone (HA-Ub-VS Boston Biochem U-212) • DMSO: DMSO (Sigma cat #D4540-100ML) • Reaction Buffer: 50 mM HEPES (pH 8.5), 150 mM NaCl, 0.01% Tween 20, 0.1% BSA • Detection Buffer: 50 mM HEPES (pH 8.5), 150 mM NaCl, 0.01% Tween 20, 0.1% BSA, 800 mM KF • Detection Reagent A: 2.6 nM Anti-6HIS-Eu cryptate and 40 nM Anti-HA-XL665 in detection buffer • Eu cryptate: Anti-6HIS-Eu cryptate (CisBio 61HISKLA) • XL665: Anti-HA-XL665 (CisBio 610HAXLA) Enzyme Reaction (15 Min Pre Incubation Parkin with Activator Only) • Parkin: 40 nM • HA-Ub-VS Probe: 70 nM • Activator/DMSO: 2× Activator/2% DMSO Reaction time: 60 minutes Temperature: 22° C. Total volume: 10 μl reaction Detection Reaction Take […] of Enzyme Reaction above and add 10 μl detection Reagent A under the following conditions: • Reaction time: 60 minutes • Temperature: 22° C. • Total volume: 20 μl
Assay procedure (Using HP D-300 compound dispenser and Bravo for the operation):
1) Heat activate Parkin in reaction buffer (500 μl/1.5 ml tube: Eppendorf Thermomixer 5 minutes, 400 rpm at 58° C. and put on ice until needed).
2) Load assay plate wells with 4.8 μl 84.5 nM Parkin in reaction buffer by use of Bravo.
3) Deliver 0.2 μl 200× activator candidates in DMSO by use of HP D-300 compound dispenser. Highest 200× concentration=[…] and then twofold dilutions.
4) Spin 1000 rpm, 2 minutes, at room temp.
5) Incubate plate for 15 minutes at room temp.
6) Add 5 μl 140 nM HA-Ub-VS Probe in reaction buffer by use of Bravo.
7) Spin 1000 rpm, 2 minutes, at room temp.
8) Incubate plate for 60 minutes at room temp.
9) Add 10 μl 2.6 nM Anti-6HIS-Eu cryptate and 40 nM […] in detection buffer.
10) Spin 1000 rpm, 2 minutes, at room temp.
11) Incubate plate for 60 minutes at room temp.
12) Read plates on Perkin Elmer Envision instrument with the following parameters:
LANCE dual laser protocol loaded into the Envision® software
Top Mirror: LANCE/DELFIA Duel/Bias (Bar code 446)
Emission Filter: APC 665 EM (Bar code 205)
2nd Emission Filter: Europium 615 EM (Bar code 203)
Read 655 nm (channel 1) and 615 nm (channel 2) wavelengths on Envision®
Data Analysis: The Data can be read in CSV files. There are two tables in those CSV files, which are the values of 655 nm (channel 1) and 615 nm (channel 2) wavelengths respectively. The data is converted to an HTRF Ratio=(Channel 1/Channel 2)*10,000
The average of all the 0 μM controls (DMSO only)=BKGD (Background—0% activation). Subtract BKGD from each HTRF Ratio value=HTRF−BKGD. The average of all the […] 100 nM control activator in DMSO controls=Max (100% activation). The following equation is then used to calculate % Activation for each well/candidate as follows: % Activation=(HTRF−BKGD/Max)*100.
Graphpad Prism was used with Transform X values: X=Log(X) and nonlinear regression (dose-response-stimulation): Log(agonist) vs Response−variable slope (four parameters) with constrains set to Bottom=0 and Top=100.
The Activity-Based Probe Assay was performed with various compounds in Tables 1, 2, 3A and 3B.

Row | SMILES | EC50
1 | Cc1ccccc1C(=O)Nc1nc(NC(=O)c2ccccc2C)n(-c2ccc3c(c2)CCO3)n1 [Compound 1] | 52 µM and > 100 µM
2 | Cc1ccccc1C(=O)Nc1nc(NC(=O)[C@@H]2C[C@@H](F)CN2)nn1-c1ccccc1 [Compound 4] | 38 µM and 24 µM
3 | Cc1ccccc1C(=O)Nc1nc(NC(=O)C2CCCNC2)n(-c2ccccc2)n1 (stereo not drawn) [Compound 14] | > 100 µM
4 | Cc1ccccc1C(=O)Nc1nc(NC(=O)C2CCCN2)n(-c2ccccc2)n1 (stereo not drawn) [Compound 15] | > 100 µM
5 | Cc1ccccc1C(=O)Nc1nc(NC(=O)C2CCCNC2)nn1-c1ccccc1 (stereo not drawn) [Compound 19] | > 100 µM
6 | Cc1ccccc1C(=O)Nc1nc(NC(=O)c2cn(C)cn2)n(-c2ccccc2)n1 [Compound 22] | > 100 µM
7 | Cc1ccccc1C(=O)Nc1nc(NC(=O)C2CNC2)nn1-c1ccccc1 [Compound 43] | > 100 µM
8 | Cc1ccccc1C(=O)Nc1nc(NC(=O)C2CCN(CCC#N)CC2)nn1-c1ccccc1 [Compound 45] | > 100 µM
9 | Cc1ccccc1C(=O)Nc1nc(NC(=O)c2ccccc2C)n(-c2cnn(C)c2)n1 [Compound 47] | 16 µM
10 | C#Cc1ccc(C(=O)Nc2nc(NC(=O)c3cccc(N=[N+]=[N-])c3)nn2-c2ccccc2)cc1 [Compound 48] | 2 µM
11 | O=C(Nc1nc(NC(=O)C2CCCCN2)n(-c2ccccc2)n1)C1CCCCN1 (stereo not drawn) [Compound 49] | > 100 µM
12 | Cc1ccccc1C(=O)Nc1nc(-c2ccc(F)cn2)nn1-c1ccccc1 [Compound 50] | > 100 µM
13 | Cc1ccccc1C(=O)Nc1nc(NC(=O)C2CCCCN2)nn1-c1ccccc1 (stereo not drawn) [Compound 51] | 84 µM
14 | O=C(Nc1nc(Nc2cccc3ccccc23)n(-c2ccccc2)n1)c1ccccc1 [Compound 52] | 61 µM
15 | C#Cc1ccc(C(=O)Nc2nc(NC(=O)c3ccc(N=[N+]=[N-])cc3)nn2-c2ccccc2)cc1 [Compound 53] | > 100 µM
16 | Cc1ccccc1C(=O)Nc1nc(NC(=O)c2ccccc2C)n(-c2ccc(N3CCOCC3)cc2)n1 [Compound 54] | 10 µM
17 | O=C(Nc1nc(NC(=O)c2c(F)c(F)c(F)c(F)c2F)n(-c2ccccc2)n1)c1ccccc1 [Compound 55] | 12 µM
18 | O=C(Nc1nc(NC(=O)C2CCCNC2)n(-c2ccccc2)n1)C1CCCNC1 (stereo not drawn) [Compound 56] | > 100 µM
19 | Cc1ccccc1C(=O)Nc1nc(NC(=O)c2ccccc2C)n(-c2ccc(N3CCNCC3)cc2)n1 [Compound 57] | > 100 µM
20 | Cc1ccccc1C(=O)Nc1nc(NC(=O)c2cccc(N=[N+]=[N-])c2)nn1-c1ccccc1 [Compound 66] | 8 µM
21 | Cc1ccccc1C(=O)Nc1nc(NC(=O)c2ccccc2C)n(-c2ccc(N3CCN(C)CC3)cc2)n1 [Compound 68] | 24 µM
22 | Cc1ccccc1C(=O)Nc1nc(NC(=O)c2cccc(N=[N+]=[N-])c2)n(-c2ccccc2)n1 [Compound 69] | 4 µM
23 | Cc1ccccc1C(=O)Nc1nc(NC(=O)c2ccc(N=[N+]=[N-])cc2)n(-c2ccccc2)n1 [Compound 70] | 4 µM
24 | O=C(Nc1nc(NC(=O)c2cccnc2)n(-c2cccc(F)c2)n1)c1cccnc1 [Compound 72] | 2 µM
25 | Cc1ccccc1C(=O)Nc1nc(NC(=O)c2ccc(N=[N+]=N)cc2)n(-c2ccc(OC(F)(F)F)cc2)n1 [Compound 74] | 0.9 µM
26 | Cc1ccccc1C(=O)Nc1nc(NC(=O)c2ccc(N=[N+]=[N-])cc2)nn1-c1ccc(OC(F)(F)F)cc1 [Compound 76] | 34 µM

Row | SMILES | EC50
27 | Cc1ccccc1C(=O)Nc1nc(NC(=O)c2cccc(N=[N+]=[N-])c2)nn1-c1ccc(OC(F)(F)F)cc1 [Compound 77] | 6 µM
28 | O=C(Nc1nc(NC(=O)c2c(F)c(F)c(F)c(F)c2F)nn1-c1ccccc1)c1ccccc1 [Compound 78] | 0.2 µM and 0.4 µM and 0.5 µM
29 | Cc1ccccc1C(=O)Nc1nc(NC(=O)c2cccc(N=[N+]=[N-])c2)n(-c2ccc(OC(F)(F)F)cc2)n1 [Compound 79] | 1 µM
30 | Cc1ccccc1C(=O)Nc1nc(NC(=O)c2ccncc2)nn1-c1ccc(OC(F)(F)F)cc1 [Compound 80] | 3 µM
31 | O=C(Nc1nc(NC(=O)c2cccnc2)n(-c2ccc(Cl)cc2)n1)c1cccnc1 [Compound 81] | 3 µM
32 | O=C(Nc1nc(NC(=O)c2ccncc2)n(-c2ccc(Cl)cc2)n1)c1ccncc1 [Compound 82] | 2 µM
33 | O=S(=O)(Nc1nc(NS(=O)(=O)c2ccccc2)n(-c2ccccc2)n1)c1ccccc1 [Compound 83] | > 100 µM
34 | Cc1ccccc1C(=O)Nc1nc(NCc2ccccc2)nn1-c1ccccc1 [Compound 84] | 4 µM
35 | Cc1ccccc1C(=O)Nc1nc(NC(=O)c2ccncc2)nn1-c1ccc(C(F)(F)F)cc1 [Compound 85] | 3 µM
36 | Cc1ccccc1C(=O)Nc1nc(NC(=O)c2cccnc2)nn1-c1ccc(OC(F)(F)F)cc1 [Compound 86] | 6 µM
37 | Cc1ccccc1C(=O)Nc1nc(NC(=O)c2cccnc2)nn1-c1cccc(F)c1 [Compound 87] | 7 µM
38 | CCc1ccccc1C(=O)Nc1nc(NC(=O)c2ccccc2CC)n(-c2ccccc2)n1 [Compound 88] | 5 µM
39 | Cc1ccccc1C(=O)Nc1nc(NC(=O)c2ccncc2)nn1-c1cccc(F)c1 [Compound 89] | 2 µM
40 | O=C(Nc1ccccc1)c1nc(C(=O)Nc2ccccc2)n(-c2ccccc2)n1 [Compound 90] | > 100 µM
41 | Cc1ccccc1C(=O)Nc1nc(NCCc2ccccc2)nn1-c1ccccc1 [Compound 91] | 2 µM
42 | Cc1ccccc1C(=O)Nc1nc(NC(=O)c2ccncc2)nn1-c1ccc(Cl)cc1 [Compound 92] | 2 µM
43 | Cc1cncc(F)c1C(=O)Nc1nc(NC(=O)c2c(C)cncc2F)n(-c2ccccc2)n1 [Compound 93] | > 100 µM
44 | Cc1ccccc1C(=O)Nc1nc(NC(=O)c2cccnc2)nn1-c1ccc(C(F)(F)F)cc1 [Compound 94] | 4 µM
45 | Cc1ccccc1C(=O)Nc1nc(NC(=O)c2cccnc2)nn1-c1ccc(Cl)cc1 [Compound 95] | 4 µM
46 | O=C(Nc1nc(NC(=O)c2ccnc(O)c2)n(-c2ccccc2)n1)c1ccnc(O)c1 [Compound 96] | 11 µM and 8 µM
47 | Cc1ccccc1C(=O)Nc1nc(NCCc2ccccn2)nn1-c1ccccc1 [Compound 97] | 14 µM
48 | Cc1c(C(=O)Nc2nc(NC(=O)c3ccnc(F)c3C)n(-c3ccccc3)n2)ccnc1F [Compound 98] | 5 µM
49 | Cc1cnccc1C(=O)Nc1nc(NC(=O)c2ccncc2C)n(-c2ccccc2)n1 [Compound 99] | 13 µM
50 | Cc1cccc(C)c1C(=O)Nc1nc(NC(=O)c2c(C)cccc2C)n(-c2ccccc2)n1 [Compound 100] | 9 µM
51 | Cc1ccccc1C(=O)Nc1nc(NCc2ccccn2)nn1-c1ccccc1 [Compound 101] | 18 µM
